According to publication PMC6155222, “3-Substituted N-Benzylpyrazine-2-carboxamide Derivatives: Synthesis, Antimycobacterial and Antibacterial Evaluation” (Molecules : A Journal of Synthetic Chemistry and Natural …, 2017):
Values after ≈ are worked out from the molar mass of the structure shown. Read-outs that look alike come from different tables or passages of the source.

Key:
[1] = test system: Mycobacterium smegmatis CCM 4622 (ATCC 607); assay: Antimycobacterial screening, microdilution broth panel method with resazurin; assay type: cell-based; details: Mycolicibacterium smegmatis, 48 h + 4 h
Experimental: An antimycobacterial assay was performed with fast growing Mycobacterium smegmatis CCM 4622 (ATCC 607) from the Czech Collection of Microorganisms (Brno, Czech Republic). The technique used for activity determination was a microdilution broth panel method using 96-well microtitration plates. The culturing medium was Middlebrook 7H9 (MB) broth (Sigma-Aldrich), enriched with 0.4% of glycerol (Sigma-Aldrich) and 10% of Middlebrook OADC growth supplement (Himedia, Mumbai, India). Tested compounds were dissolved in DMSO (Sigma-Aldrich), and the MB broth was then added to obtain a concentration of 2000 μg·mL^−1. Standards used for activity determination were isoniazid (INH), rifampicin (RIF), and ciprofloxacin (CPX) (Sigma-Aldrich). Final concentrations were reached by binary dilution and the addition of mycobacterial suspension, and were set as 500, 250, 125, 62.5, 31.25, 15.625, 7.81, and 3.91 μg·mL^−1, except for the standards of ciprofloxacin and rifampicin, where the final concentrations were 12.5, 6.25, 3.125, 1.56, 0.78, 0.39, 0.195, and 0.098 μg·mL^−1. […] Plates were also sealed with polyester adhesive film and incubated in the dark at 37 °C, without agitation. The addition of 0.01% solution of resazurin sodium salt followed after 48 h. This stain was prepared by dissolving resazurin sodium salt (Sigma-Aldrich) in deionised water, producing a 0.02% solution. Then, a 10% aqueous solution of Tween 80 (Sigma-Aldrich) was prepared. Both liquids were mixed up making use of the same volumes and filtered through a syringe membrane filter. Microtitration panels were then incubated for a further 4 h. Antimycobacterial activity was expressed as the minimal inhibition concentration (MIC) and the value was read on the basis of stain colour change (blue colour—active compound; pink colour—not active compound). […] All experiments were conducted in duplicate.

[2] = test system: Mycobacterium tuberculosis H37Rv; assay: Microplate Alamar Blue Assay (MABA), microdilution panel method; assay type: cell-based
[3] = Determination of lipophilicity by RP-HPLC (log k); details: RP-HPLC capacity factor, MeOH 70% / H2O 30%, C18, 30 °C
Experimental: Log k was determined using an Agilent Technologies 1200 SL liquid chromatograph with Diode-array Detector SL G1315C (Agilent Technologies Inc., Colorado Springs, CO, USA), with pre-column ZORBAX XDB-C18 5 μm, 4 mm × 4 mm, Part No. 7995118-504 (Agilent Technologies Inc.) and column ZORBAX Eclipse XDB-C18 5 μm, 4.6 mm × 250 mm, Part No. 7995118-585 (Agilent Technologies Inc.). The separation process was controlled by Agilent ChemStation, version B.04.02, extended by a spectral module (Agilent Technologies Inc.). The mobile phase consisted of MeOH (HPLC grade, 70%) and H2O (HPLC-Milli-Q Grade, 30%).
The flow rate was 1.0 mL/min, samples were injected in a volume of 20 μL, and the column temperature was 30 °C. A value of 210 nm as the detection wavelength and 270 nm as the monitor wavelength were used. Retention times (tR) were measured in minutes. The dead time of the system (tD) was determined as the retention time of the KI methanol solution. Capacity factors k for individual compounds were calculated according to the formula k = (tR − tD)/tD. Log k, calculated from the capacity factor k, as used as the lipophilicity index converted to log scale.

[4] = test system: Staphylococcus epidermidis H 6966/08; assay: Antibacterial microdilution broth method; assay type: cell-based; details: read-out: MIC after 24 h S. epidermidis
Experimental: (§1) Microdilution broth method. Antibacterial evaluation was performed against eight bacterial strains from the Czech Collection of Microorganisms (Brno, Czech Republic) (Staphylococcus aureus CCM 4516/08, Escherichia coli CCM 4517, Pseudomonas aeruginosa CCM 1961) or clinical isolates from the Department of Clinical Microbiology, University Hospital and Faculty of Medicine in Hradec Králové, Charles University in Prague, Czech Republic (Staphylococcus aureus H 5996/08-methicilin resistant (MRSA), Staphylococcus epidermidis H 6966/08, Enterococcus sp. J 14365/08, Klebsiella pneumoniae D 11750/08, Klebsiella pneumoniae J 14368/08-ESBL positive). All strains were subcultured on Mueller-Hinton agar (MHA) (Difco/Becton Dickinson, Detroit, MI, USA) at 35 °C and maintained on the same medium at 4 °C. The compounds were dissolved in DMSO, and the antibacterial activity was determined in Mueller-Hinton liquid broth (Difco/Becton Dickinson), and buffered to pH 7.0. Controls consisted of medium and DMSO alone. […] The minimum inhibitory concentration (MIC), defined as the minimum concentration to prevent the visible growth compared to control, was determined after 24 and 48 h of static incubation at 35 °C. The standards were neomycin, bacitracin, penicillin G, ciprofloxacin, and phenoxymethylpenicillin.

[5] = test system: Staphylococcus aureus H 5996/08-methicilin resistant (MRSA); assay: Antibacterial microdilution broth method; assay type: cell-based; details: 24 h, read-out: MIC after 24 h MRSA
Experimental: as §1

[6] = test system: Staphylococcus aureus CCM 4516/08; assay: Antibacterial microdilution broth method; assay type: cell-based; details: CCM4516, 24 h, read-out: MIC after 24 h S. aureus
Experimental: as §1

[7] = Cytotoxicity assay, CellTiter 96 Aqueous One Solution; assay type: cell-based; details: human; HepG2 cells, 24 h exposure
Experimental: The human liver hepatocellular carcinoma cell line HepG2 (passage 35–36), purchased from Health Protection Agency Culture Collections (ECACC, Salisbury, UK), was routinely cultured in Minimum Essential Eagle Medium MEM (Sigma-Aldrich) supplemented with 10% fetal bovine serum (PAA Laboratories GmbH, Pasching, Austria), 2mM L-glutamine solution (Sigma-Aldrich), and 1% non-essential amino acid solution (Sigma-Aldrich), in a humidified atmosphere containing 5% CO2 at 37 °C.
For subculturing, the cells were harvested after trypsin/EDTA (Sigma-Aldrich) treatment at 37 °C. To evaluate the cytotoxicity, the HepG2 cells treated with the tested substances were used as experimental groups, whereas untreated HepG2 cells served as control groups.
The HepG2 cells were seeded in a density of 1 × 10^4 cells per well on a 96-well plate. The following day (24 h after seeding), they were treated with tested substances dissolved in DMSO (maximal incubation concentration of DMSO was 1%). […] The treatment was carried out in a humidified atmosphere containing 5% CO2 at 37 °C, in triplicate, for 24 h. The controls representing 100% cell viability, 0% cell viability (the cells treated with 10% DMSO), no-cell controls, and vehiculum controls were incubated in triplicate, simultaneously. After 24 h exposure, the reagent from the kit CellTiter 96® Aqueous One Solution Cell Proliferation Assay (Promega) was added, according to the recommendation of the manufacturer. After 2 h incubation at 37 °C in humidified, 5% CO2 atmosphere, the absorbance was recorded at 490 nm. Inhibitory curves were constructed for each compound, plotting incubation concentrations vs. percentage of absorbance relative to untreated control. The standard toxicological parameter IC50 was calculated by a nonlinear regression analysis of the inhibitory curves using GraphPad Prism software (version 6, GraphPad Software, Inc., La Jolla, CA, USA).

[8] = Staphylococcus epidermidis, H6966/08, 24 h

Compound | MIC [1] | MIC ([2]; pH 6.6) | Log k [3] | MIC [4, 8] | MIC ([5]; Staphylococcus aureus, MRSA) | MIC [6] | MIC ([2]; value in parentheses) | IC50 at 24 h [7] | MIC ([4]; 24 h) | MIC [5]
O=C(NCc1ccc(F)cc1)c1nccnc1NCc1ccc(F)cc1 [Compound 11a, N-(4-Fluorobenzyl)-3-((4-fluorobenzyl)amino)pyrazine-2-carboxamide] | > 500 µg/mL | > 100 µg/mL | 1.058 | – | – | – | – | – | – | –
O=C(NCc1ccc(C(F)(F)F)cc1)c1nccnc1Cl [Compound 13, 3-Chloro-N-(4-(trifluoromethyl)benzyl)pyrazine-2-carboxamide] | > 500 µg/mL | > 100 µg/mL | 0.145 | 62.5 µM (≈ 19.7 µg/mL) | 500 µM (≈ 158 µg/mL) | 31.2 µM (≈ 9.87 µg/mL) | – | – | – | –
CC1(C)S[C@@H]2[C@H](NC(=O)COc3ccccc3)C(=O)N2[C@H]1C(=O)O [Penicillin V, phenoxymethylpenicillin, reference compound] | – | – | – | 3.9 µM (≈ 1.37 µg/mL) | 62.5 µM (≈ 21.9 µg/mL) | 0.12 µM (≈ 0.042 µg/mL) | – | – | – | –
O=C(NCc1cccc(Cl)c1)c1nccnc1NCc1cccc(Cl)c1 [Compound 6a, N-(3-Chlorobenzyl)-3-((3-chlorobenzyl)amino)pyrazine-2-carboxamide] | > 500 µg/mL | > 100 µg/mL | 1.515 | – | – | – | – | – | – | –
O=C(O)c1cn(C2CC2)c2cc(N3CCNCC3)c(F)cc2c1=O [CPX, ciprofloxacin, reference compound] | 0.098 to 0.195 µg/mL | – | – | – | – | – | – | – | – | –
Cc1ccc(CNC(=O)c2nccnc2Cl)cc1 [Compound 2, 3-Chloro-N-(4-methylbenzyl)pyrazine-2-carboxamide] | > 500 µg/mL | > 100 µg/mL | 0.033 | 500 µM (≈ 131 µg/mL) | > 500 µM | 125 µM (≈ 32.7 µg/mL) | – | – | – | –
Cc1ccc(CNC(=O)c2nccnc2NCc2ccc(C)cc2)cc1 [Compound 2a, N-(4-Methylbenzyl)-3-((4-methylbenzyl)amino)pyrazine-2-carboxamide] | > 250 µg/mL | 25 µg/mL | 1.517 | – | – | – | 72 µM | – | – | –
Cc1ccccc1CNC(=O)c1nccnc1NCc1ccccc1C [Compound 1a, N-(2-Methylbenzyl)-3-((2-methylbenzyl)amino)pyrazine-2-carboxamide] | > 500 µg/mL | 12.5 µg/mL | 1.459 | – | – | – | 36 µM | > 250 µM | – | –
O=C(NCc1ccc(Cl)cc1)c1nccnc1Cl [Compound 7, 3-Chloro-N-(4-chlorobenzyl)pyrazine-2-carboxamide] | 500 µg/mL | > 100 µg/mL | 0.082 | – | – | – | – | – | – | –
O=C(NCc1ccc(Cl)cc1Cl)c1nccnc1Cl [Compound 8, 3-Chloro-N-(2,4-dichlorobenzyl)pyrazine-2-carboxamide] | 125 µg/mL | > 100 µg/mL | 0.375 | 125 µM (≈ 39.6 µg/mL) | 250 µM (≈ 79.1 µg/mL) | 125 µM (≈ 39.6 µg/mL) | – | – | – | –
O=C(NCc1cccc(C(F)(F)F)c1)c1nccnc1Cl [Compound 12, 3-Chloro-N-(3-(trifluoromethyl)benzyl)pyrazine-2-carboxamide] | 125 µg/mL | > 100 µg/mL | 0.110 | – | – | – | – | – | – | –
O=C(NCc1ccc(C(F)(F)F)cc1)c1nccnc1NCc1ccc(C(F)(F)F)cc1 [Compound 13a, N-(4-(Trifluoromethyl)benzyl)-3-((4-(trifluoromethyl)benzyl)amino)pyrazine-2-carboxamide] | > 500 µg/mL | > 100 µg/mL | 1.593 | > 500 µM | > 500 µM | 62.5 µM (≈ 28.4 µg/mL) | – | – | – | –
O=C(NCc1ccc(Cl)c(Cl)c1)c1nccnc1Cl [Compound 9, 3-Chloro-N-(3,4-dichlorobenzyl)pyrazine-2-carboxamide] | 250 µg/mL | 100 µg/mL | 0.309 | 31.2 µM (≈ 9.89 µg/mL) | 250 µM (≈ 79.1 µg/mL) | 62.5 µM (≈ 19.8 µg/mL) | – | – | – | –
Cc1ccccc1CNC(=O)c1nccnc1Cl [Compound 1, 3-Chloro-N-(2-methylbenzyl)pyrazine-2-carboxamide] | 250 µg/mL | > 100 µg/mL | 0.009 | – | – | – | – | – | – | –
neomycin [reference compound] | – | – | – | – | – | – | – | – | 7.81 µM | 0.98 µM
COc1ccc(CNC(=O)c2nccnc2Cl)c(OC)c1 [Compound 4, 3-Chloro-N-(2,4-dimethoxybenzyl)pyrazine-2-carboxamide] | > 500 µg/mL | > 100 µg/mL | −0.095 | > 500 µM | > 500 µM | 125 µM (≈ 38.5 µg/mL) | – | – | – | –
CO[C@H]1/C=C/O[C@@]2(C)Oc3c(C)c(O)c4c(O)c(c(/C=N/N5CCN(C)CC5)c(O)c4c3C2=O)NC(=O)/C(C)=C\C=C\[C@H](C)[C@H](O)[C@@H](C)[C@@H](O)[C@@H](C)[C@H](OC(C)=O)[C@@H]1C [RIF, rifampicin, reference compound] | 0.78 to 1.56 µg/mL | – | – | – | – | – | – | – | – | –
O=C(NCc1ccccc1F)c1nccnc1Cl [Compound 10, 3-Chloro-N-(2-fluorobenzyl)pyrazine-2-carboxamide] | 125 µg/mL | > 100 µg/mL | −0.154 | – | – | – | – | – | – | –
O=C(NCc1ccccc1F)c1nccnc1NCc1ccccc1F [Compound 10a, N-(2-Fluorobenzyl)-3-((2-fluorobenzyl)amino)pyrazine-2-carboxamide] | > 500 µg/mL | > 100 µg/mL | 1.108 | – | – | – | – | – | – | –
O=C(NCc1cccc(Cl)c1)c1nccnc1Cl [Compound 6, 3-Chloro-N-(3-chlorobenzyl)pyrazine-2-carboxamide] | 125 µg/mL | 100 µg/mL | 0.060 | – | – | – | – | – | – | –
O=C(NCc1ccc(F)cc1)c1nccnc1Cl [Compound 11, 3-Chloro-N-(4-fluorobenzyl)pyrazine-2-carboxamide] | 250 µg/mL | > 100 µg/mL | −0.139 | – | – | – | – | – | – | –
O=C(NCc1ccccc1Cl)c1nccnc1NCc1ccccc1Cl [Compound 5a, N-(2-Chlorobenzyl)-3-((2-chlorobenzyl)amino)pyrazine-2-carboxamide] | > 500 µg/mL | > 100 µg/mL | 1.542 | – | – | – | – | – | – | –
COc1ccc(CNC(=O)c2nccnc2Cl)cc1 [Compound 3, 3-Chloro-N-(4-methoxybenzyl)pyrazine-2-carboxamide] | 125 µg/mL | 25 µg/mL | −0.202 | 250 µM (≈ 69.4 µg/mL) | 125 µM (≈ 34.7 µg/mL) | 31.2 µM (≈ 8.68 µg/mL) | 90 µM | – | – | –
